Laboratory results as given in patent publication US9730906B2, “α-derivatives of cis-monounsaturated fatty acids for use as medicines” (UNIVERSITAT DE LES ILLES BALEARS, priority 2008, dated 2017).

Test system: human brain cancer (SF767), human lung cancer cells (A549), human pancreas cancer cells (BXPC3)
Assay: Na-OHOD alone and combined with anti-tumour pharmaceuticals in immune-deprived mice with human tumours
Type: in vivo
Settings: Na-OHOD 600 mg/kg
Procedure: FIG. 8A. Effect of Na-OHOD (sodium salt of OHOD) and combinations with various pharmaceuticals: temozolomide (TMZ), erlotinib, gemcitabine and cisplatin (cis-Pt) on various types of human cancers in models. Effect of treatments with vehicle (Control), temozolomide (TMZ, 80 mg/kg), Na-OHOD (OHOD, 600 mg/kg) and TMZ plus Na-OHOD (simultaneously at the same doses) for 60 days in immune-deprived mice infected with human brain cancer (SF767).
FIG. 8B. Effect of Na-OHOD (sodium salt of OHOD) and combinations with various pharmaceuticals: temozolomide (TMZ), erlotinib, gemcitabine and cisplatin (cis-Pt) on various types of human cancers in models. Idem, with Na-OHOD (OHOD, 600 mg/kg), erlotinib (Erlotinib, 40 mg/kg), cisplatin (cis-Pt, 100 mg/kg), plus erlotinib (OHO Er) or Na-OHOD plus cisplatin (OHO Pt) in nude mice infected with human lung cancer cells (A549).
FIG. 8C. Effect of Na-OHOD (sodium salt of OHOD) and combinations with various pharmaceuticals: temozolomide (TMZ), erlotinib, gemcitabine and cisplatin (cis-Pt) on various types of human cancers in models. Idem with Na-OHOD (OHOD, 600 mg/kg), Gemcitabine (Gemcitab, 40 mg/kg) or Na-OHOD plus Gemcitabine (OHO Gem) using the same doses in nude mice infected with human pancreas cancer cells (BXPC3). […]

CCCCCCCC/C=C\CCCCCCC(O)C(=O)[O-].[Na+] (stereo not shown) [Na-OHOD]
anti-tumour effectiveness of Na-OHOD alone vs temozolomide, erlotinib, gemcitabine, cisplatin: more effective
